Reference: ChEMBL document CHEMBL3585312, “Anti-MRSA activity of isoplagiochin-type macrocyclic bis(bibenzyl)s is mediated through cell membrane damage” (2015)
Converted amounts (≈) assume the structure as drawn. The source made the active and inactive calls. The rule behind the calls is not given here.

What was measured:
Type in all cases: functional
[1] = tested on: Staphylococcus aureus; assay: Induction of methicillin-resistant Staphylococcus aureus N315 membrane damage using ethidium bromide assessed as fluorescence intensity at 10 ug/ml by ethidium bromide outflow assay
[2] = tested on: Staphylococcus aureus; assay: Induction of methicillin-resistant Staphylococcus aureus N315 membrane damage using ethidium bromide assessed as fluorescence intensity at 10 ug/ml by ethidium bromide inflow assay
[3] = tested on: Staphylococcus aureus; assay: Antimicrobial activity against methicillin-resistant Staphylococcus aureus N315 after 24 hrs by broth microdilution method; details: N315, 24 h
[4] = tested on: Staphylococcus aureus; assay: Induction of methicillin-resistant Staphylococcus aureus N315 membrane damage assessed as increase in Na+ concentration at 10 ug/ml after 90 mins by coupled plasma optical emission spectrometry
[5] = tested on: Staphylococcus aureus; assay: Induction of methicillin-resistant Staphylococcus aureus N315 membrane damage assessed as decrease in K+ concentration at 10 ug/ml after 90 mins by coupled plasma optical emission spectrometry
[6] = tested on: Staphylococcus aureus; assay: Induction of methicillin-resistant Staphylococcus aureus N315 membrane damage using ethidium bromide assessed as fluorescence intensity at 100 ug/ml by ethidium bromide outflow assay
[7] = tested on: Staphylococcus aureus; assay: Induction of methicillin-resistant Staphylococcus aureus N315 membrane damage using ethidium bromide assessed as fluorescence intensity at 100 ug/ml by ethidium bromide inflow assay

Compound | Activity [1] | Activity [2] | MIC [3] [µg/mL] | Activity [4] | Activity [5] | Activity [6] | Activity [7]
Oc1ccc2c(c1)CCc1cccc(c1)-c1cccc(c1)CCc1ccc-2c(O)c1 | Active | Active | 0.5 (≈ 1.27 µM) | Active | Active | – | –
Oc1ccc2c(c1)CCc1ccc(cc1)-c1cccc(c1)CCc1ccc-2c(O)c1 | – | – | – | inactive | inactive | inactive | inactive
Oc1ccc2c(c1)CCc1ccc(cc1)Oc1cccc(c1)CCc1ccc-2c(O)c1 | Active | Active | – | – | – | – | –
Oc1ccc2c(c1)CCc1ccccc1-c1cccc(c1)CCc1ccc-2c(O)c1 | – | – | 2 (≈ 5.1 µM) | – | – | – | –
